From ChEMBL document CHEMBL5360649, “Potential Broad-Spectrum Antimicrobial, Wound Healing, and Disinfectant Cationic Peptide Crafted from Snake Venom” (J Med Chem, 2023)
Activity calls are given as the source filed them. The calls are words filed in the database; no cut-off is given here.

How the values were obtained:
Escherichia coli [1] = test: Antibiofilm activity against Escherichia coli in the presence of Cl-; format: functional, organism-based
Rattus norvegicus [2] = organism: Rattus norvegicus; test: Induction of wound healing in surgically-induced Albino Wistar rat wound model inoculated with methicillin-resistant Staphylococcus aureus assessed as dense epithelial-tissue layers at 10 uM measured after 11 days by H&E staining based analysis; format: functional; conditions: time 11.0 day
Pseudomonas aeruginosa [3] = test: Antibacterial activity against patient-derived Pseudomonas aeruginosa assessed as inhibition of bacterial growth incubated for 24 hrs by CLSI protocol based microdilution method; format: functional
Staphylococcus aureus [4] = test: Antibiofilm activity against preformed biofilm in methicillin-resistant Staphylococcus aureus assessed as decrease in cell viability at 0.5 times of MIC incubated overnight by MTT assay relative to control; format: functional
Escherichia coli [5] = test: Induction of morphological changes in Escherichia coli assessed as cellular destruction at MIC concentration incubated for 6 hrs by SEM analysis; format: functional, organism-based
Rattus norvegicus [6] = organism: Rattus norvegicus; test: Induction of wound healing in surgically-induced Albino Wistar rat wound model inoculated with methicillin-resistant Staphylococcus aureus assessed as reduction in inflammatory signs at 10 uM measured after 11 days by H&E staining based analysis; format: functional; conditions: time 11.0 day
Klebsiella pneumoniae [7] = test: Induction of morphological changes in carbapenem resistant Klebsiella pneumoniae ATCC BAA-1705 assessed as inhibition of cell division by measuring filamented cells at MIC concentration incubated for 60 mins by SEM analysis; format: functional, organism-based
Escherichia coli [8] = test: Induction of morphological changes in Escherichia coli assessed as cellular destruction at MIC concentration incubated for 6 hrs by AFM analysis; format: functional, organism-based
Pseudomonas aeruginosa [9] = test: Induction of morphological changes in Pseudomonas aeruginosa at MIC concentration incubated for 6 hrs by AFM analysis; format: functional, organism-based
Staphylococcus aureus [10] = test: Antibiofilm activity against preformed biofilm in methicillin-resistant Staphylococcus aureus assessed as decrease in cell viability at MIC incubated overnight by MTT assay relative to control; format: functional
Klebsiella pneumoniae [11] = test: Induction of morphological changes in carbapenem resistant Klebsiella pneumoniae ATCC BAA-1705 assessed as inhibition of cell division by measuring elongated cells at MIC concentration incubated for 60 mins by SEM analysis; format: functional, organism-based
Klebsiella pneumoniae [12] = test: Antibiofilm activity against Klebsiella pneumoniae assessed as eradication of preformed biofilm at 1 times of MIC incubated for 24 hrs by CV staining based analysis relative to control; format: functional
Staphylococcus aureus [13] = test: Antibiofilm activity against methicillin-resistant Staphylococcus aureus assessed as biofilm eradication at 1 times of MIC incubated for 24 hrs by CV staining based analysis relative to control; format: functional
Lipopolysaccharide (LPS) = test: Displacement of BODIPY-TR-cadaverin from Escherichia coli O111:B4 Lipopolysaccharide assessed as increase in binding factor at 10 to 40 uM preincubated for 15 mins followed by BODIPY-TR-cadaverin addition and measured after 15 mins by fluorescence based analysis; conditions: dose 10-40 µM, time 30.0 min
Cell membrane [14] = test: Induction of cytoplasmic membrane depolarization in Klebsiella pneumoniae assessed as increase in fluorescence intensity at 0.5 to 1 times of MIC incubated for 22 mins by DiSC3-5 dye based fluorescence method; format: subcellular
Pseudomonas aeruginosa [15] = test: Antibiofilm activity against Pseudomonas aeruginosa in the presence of Cl-; format: functional, organism-based
Staphylococcus aureus [16] = test: Induction of morphological changes in methicillin resistant Staphylococcus aureus assessed as decrease in legible cells at MIC concentration incubated for 6 hrs by AFM analysis; format: functional, organism-based
Staphylococcus aureus [17] = test: Antibacterial activity against methicillin resistant Staphylococcus aureus assessed as inhibition of bacterial growth at 1.25 to 40 uM by microtiter plate reader analysis; format: functional, organism-based; conditions: dose 1.25-40 µM, time 0.5-8.5 hrs, TDE = time-dependent effect
[18] = Induction of wound healing in surgically-induced Albino Wistar rat wound model assessed as decrease in mean open wound percentage at 10 uM measured after 11 days by photographic analysis (reference value: 32.25%); format: functional; set-up: scale not given: the % may be the effect or the level left; conditions: time 11 day
Klebsiella pneumoniae [19] = test: Antibacterial activity against Klebsiella pneumoniae ATCC BAA-1705 assessed as inhibition of bacterial growth incubated for 24 hrs by CLSI protocol based microdilution method; format: functional
Klebsiella pneumoniae [20] = test: Antibacterial activity against carbapenem resistance Klebsiella pneumoniae ATCC BAA-1705 assessed as inhibition of bacterial growth at 1.25 to 40 uM by microtiter plate reader analysis; format: functional, organism-based; conditions: dose 1.25-40 µM, time 0.5-8.5 hrs, TDE = time-dependent effect
Cell membrane [21] = test: Induction of inner membrane permeabilization in methicillin-resistant Staphylococcus aureus assessed as increase in fluorescence at 0.5 to 1 times of MIC incubated for 60 mins by PI staining based fluorescence analysis; format: subcellular
Cell membrane [22] = test: Induction of outer membrane permeabilization in Pseudomonas aeruginosa at 0.5 to 1 times of MIC incubated for 5 to 20 mins by fluorescence based NPN uptake assay; format: subcellular; conditions: time 5-20 min
Pseudomonas aeruginosa [23] = test: Antibacterial activity against Pseudomonas aeruginosa assessed as cell division block by measuring cellular elongation at 0.5 to 1 times of MIC incubated for 30 mins by SYTO9/PI staining based fluorescence microscopic analysis; format: functional, organism-based
[24] = Hemolytic activity in human RBC assessed as hemolysis at 3.125 to 12.5 uM incubated for 30 mins under shaking condition by multiplate reader analysis relative to control; format: toxicity, cell-based, Erythrocyte; conditions: human red blood cells (RBC), dose 3.125-12.5 µM, read-out: Activity
Escherichia coli [25] = test: Antibacterial activity against Escherichia coli assessed as cell division block by measuring cellular elongation at 0.5 to 1 times of MIC incubated for 30 mins by SYTO9/PI staining based fluorescence microscopic analysis; format: functional, organism-based
Staphylococcus aureus [26] = test: Antibiofilm activity against methicillin-resistant Staphylococcus aureus assessed as increase in dead cell proportion at MIC incubated overnight by SYTO9/PI staining based fluorescence analysis; format: functional, organism-based
Rattus norvegicus [27] = organism: Rattus norvegicus; test: Induction of wound healing in surgically-induced Albino Wistar rat wound model assessed as proper formation of sebaceous gland at 10 uM measured after 11 days by H&E staining based analysis; format: functional; conditions: time 11.0 day
[28] = Cytotoxicity against human A549 cells assessed as cell viability at 25 uM incubated for 24 hrs by MTT assay relative to control; format: toxicity, cell-based; conditions: read-out: Activity
Klebsiella pneumoniae [29] = test: Induction of morphological changes in carbapenem resistant Klebsiella pneumoniae ATCC BAA-1705 at MIC concentration incubated for 60 mins by SEM analysis; format: functional, organism-based
Klebsiella pneumoniae [30] = test: Antibiofilm activity against Klebsiella pneumoniae assessed as eradication of preformed biofilm at 0.5 times of MIC incubated for 24 hrs by CV staining based analysis relative to control; format: functional
Pseudomonas aeruginosa [31] = test: Antibiofilm activity against Pseudomonas aeruginosa assessed as clearance of preformed biofilm at 0.5 times of MIC incubated for 24 hrs by CV staining based analysis relative to control; format: functional
Pseudomonas aeruginosa [32] = test: Antibiofilm activity against Pseudomonas aeruginosa assessed as clearance of preformed biofilm at 1 times of MIC incubated for 24 hrs by CV staining based analysis relative to control; format: functional
Rattus norvegicus [33] = organism: Rattus norvegicus; test: Induction of wound healing in surgically-induced Albino Wistar rat wound model assessed as reduction in inflammatory cell infiltration at 10 uM measured after 11 days by H&E staining based analysis; format: functional; conditions: time 11.0 day
Staphylococcus aureus [34] = test: Antibacterial activity against patient-derived methicillin-resistant Staphylococcus aureus assessed as inhibition of bacterial growth incubated for 24 hrs by CLSI protocol based microdilution method; format: functional
PBMC = test: Effect on cell viability in human PBMC assessed as increase in cell number by measuring rise in cell proliferation percentage at 12.5 uM measured after 12 hrs by lymphocyte proliferation assay (12 hrs incubated Rvb = 478.774%); format: toxicity, cell-based

H-FLPIIKWVKKFFWRWR-OH
Activity (Escherichia coli [1]): Active
Activity (Rattus norvegicus [2]): Active
MIC (Pseudomonas aeruginosa [3]): 4 µM
Activity (Staphylococcus aureus [4]): 62.7%
Activity (Escherichia coli [5]): Active
Activity (Rattus norvegicus [6]): Active
Activity (Klebsiella pneumoniae [7]): Active
Activity (Escherichia coli [8]): Active
Activity (Pseudomonas aeruginosa [9]): Active
Activity (Staphylococcus aureus [10]): 33.89%
Activity (Klebsiella pneumoniae [11]): Active
Activity (Klebsiella pneumoniae [12]): ~88%
Activity (Staphylococcus aureus [13]): <=87.6%
Activity (Lipopolysaccharide (LPS)): Active
Activity (Cell membrane [14]): Active
Activity (Pseudomonas aeruginosa [15]): Active
Activity (Staphylococcus aureus [16]): Active
Activity (Staphylococcus aureus [17]): Tde
Activity [18]: 5.6%
MIC (Klebsiella pneumoniae [19]): 8 µM
Activity (Klebsiella pneumoniae [20]): Tde
Activity (Cell membrane [21]): Active
Activity (Cell membrane [22]): Active
Activity (Pseudomonas aeruginosa [23]): Active
hemolysis at 0.5 h, up to 12.5 µM [24]: 3.22%
Activity (Escherichia coli [25]): Active
Activity (Staphylococcus aureus [26]): Active
Activity (Rattus norvegicus [27]): Active
viability at 24 h, 25 µM [28]: 55.4%
Activity (Klebsiella pneumoniae [29]): Active
Activity (Klebsiella pneumoniae [30]): ~56%
Activity (Pseudomonas aeruginosa [31]): ~53%
Activity (Pseudomonas aeruginosa [32]): ~56%
Activity (Rattus norvegicus [33]): Active
MIC (Staphylococcus aureus [34]): 6 µM
Activity (PBMC): 55.188%
